Measured values reported in the supplement of paper PMC10627819.

Tests used:
[1] = system: S. aureus DSM 20231; test: fitness (endpoint OD595 vs no drug) (fraction); higher = more growth
In short: (§1)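 With the first reading as background, OD595 was measured every 30 min for 14 h in 384-well plates kept at 37 °C and inoculated at OD595 0.01. TSB, LB Lennox or CY was the medium. Fitness is the optical density at the transition into stationary phase divided by the robust mean of no-drug control wells, with a cap of 1.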

[2] = system: S. aureus Newman; test: as above
In short: as §1

[3] = system: S. pneumoniae D39V; test: as above
In short: as §1

[4] = system: B. subtilis 168; test: Bliss interaction score (quartile over a dose matrix) (fitness difference); higher = more antagonism (negative = synergy)
In short: (§2)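 Quartiles summarise the Bliss score over technical, biological and donor/recipient replicates, where the score is observed minus expected fitness under a product model. Expected fitness uses single-drug values inferred from combination data. Fitness is OD595 at entry into stationary phase over the plate's robust no-drug mean, capped at 1.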

[5] = system: S. aureus DSM 20231; test: as above
In short: as §2

[6] = system: S. aureus Newman; test: as above
In short: as §2

[7] = system: S. pneumoniae D39V; test: as above
In short: as §2

[8] = first compound 0.625 µg/mL, partner 0.0625 µg/mL
[9] = first compound 0.625 µg/mL, partner 0.125 µg/mL
[10] = first compound 1.25 µg/mL, partner 0.0625 µg/mL
[11] = first compound 1.25 µg/mL, partner 0.125 µg/mL
[12] = first compound 1.25 µg/mL, partner 0.25 µg/mL
[13] = first compound 2.5 µg/mL, partner 0.0625 µg/mL
[14] = first compound 2.5 µg/mL, partner 0.125 µg/mL
[15] = first compound 0.781 µg/mL, partner 0.1875 µg/mL
[16] = first compound 0.781 µg/mL, partner 0.375 µg/mL
[17] = first compound 0.781 µg/mL, partner 0.75 µg/mL
[18] = first compound 1.562 µg/mL, partner 0.1875 µg/mL
[19] = first compound 1.562 µg/mL, partner 0.375 µg/mL
[20] = first compound 1.562 µg/mL, partner 0.75 µg/mL
[21] = first compound 3.124 µg/mL, partner 0.1875 µg/mL
[22] = first compound 3.124 µg/mL, partner 0.375 µg/mL
[23] = first compound 3.124 µg/mL, partner 0.75 µg/mL
[24] = first compound 1.25 µg/mL, partner 0.03125 µg/mL
[25] = first compound 1.25 µg/mL, partner 0.5 µg/mL
[26] = first compound 2.5 µg/mL, partner 0.03125 µg/mL
[27] = first compound 2.5 µg/mL, partner 0.5 µg/mL
[28] = first compound 5 µg/mL, partner 0.03125 µg/mL
[29] = first compound 5 µg/mL, partner 0.0625 µg/mL
[30] = first compound 5 µg/mL, partner 0.25 µg/mL
[31] = first compound 5 µg/mL, partner 0.5 µg/mL
[32] = first compound 0.781 µg/mL, partner 0.0625 µg/mL
[33] = first compound 1.562 µg/mL, partner 0.25 µg/mL
[34] = first compound 3.124 µg/mL, partner 0.0625 µg/mL
[35] = first compound 3.124 µg/mL, partner 0.125 µg/mL
[36] = first compound 3.124 µg/mL, partner 0.25 µg/mL
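Throughout, for Bliss interaction score (quartile over a dose matrix): first quartile when negative (synergy) and third quartile when positive (antagonism).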

## COc1cccc2c1C(=O)c1c(O)c3c(c(O)c1C2=O)C[C@@](O)(C(=O)CO)C[C@@H]3O[C@H]1C[C@H](N)[C@H](O)[C@H](C)O1 [Doxorubicin] + Cn1nnc(-c2ccc(-c3ccc(N4C[C@H](CO)OC4=O)cc3F)cn2)n1 [Tedizolid]
[1]; [8]
  fitness: 0.813
[1]; [9]
  fitness: 0.728
[1]; first compound 0.625 µg/mL, partner 0.25 µg/mL
  fitness: 0.339
[1]; [10]
  fitness: 0.783
[1]; [11]
  fitness: 0.7
[1]; [12]
  fitness: 0.374
[1]; [13]
  fitness: 0.738
[1]; [14]
  fitness: 0.673
[2]; [8]
  fitness: 0.786
[2]; [9]
  fitness: 0.758
[2]; [10]
  fitness: 0.751
[2]; [11]
  fitness: 0.731
[2]; [13]
  fitness: 0.693
[2]; [14]
  fitness: 0.655
[3]; first compound 0.25 µg/mL, partner 0.03125 µg/mL
  fitness: 0.897
[3]; first compound 0.25 µg/mL, partner 0.0625 µg/mL
  fitness: 0.909
[3]; first compound 0.25 µg/mL, partner 0.125 µg/mL
  fitness: 0.747
[3]; first compound 0.25 µg/mL, partner 0.25 µg/mL
  fitness: 0.288
[3]; first compound 0.25 µg/mL, partner 0.5 µg/mL
  fitness: 0.131
[3]; first compound 0.5 µg/mL, partner 0.03125 µg/mL
  fitness: 0.903
[3]; first compound 0.5 µg/mL, partner 0.0625 µg/mL
  fitness: 0.938
[3]; first compound 0.5 µg/mL, partner 0.125 µg/mL
  fitness: 0.748
[3]; first compound 0.5 µg/mL, partner 0.25 µg/mL
  fitness: 0.288
[3]; first compound 0.5 µg/mL, partner 0.5 µg/mL
  fitness: 0.114
[3]; first compound 1 µg/mL, partner 0.03125 µg/mL
  fitness: 0.917
[3]; first compound 1 µg/mL, partner 0.0625 µg/mL
  fitness: 0.953
[3]; first compound 1 µg/mL, partner 0.125 µg/mL
  fitness: 0.774
[3]; first compound 1 µg/mL, partner 0.25 µg/mL
  fitness: 0.282
[3]; first compound 1 µg/mL, partner 0.5 µg/mL
  fitness: 0.11
[4]
  Bliss interaction score: 0.0912
[5]
  Bliss interaction score: -0.0759
[6]
  Bliss interaction score: -0.0534
[7]
  Bliss interaction score: -0.0807

## C[C@@H]1O[C@@H]1P(=O)(O)O [Fosfomycin] + CN[C@H](CC(C)C)C(=O)N[C@H]1C(=O)N[C@@H](CC(N)=O)C(=O)N[C@H]2C(=O)N[C@H]3C(=O)N[C@H](C(=O)N[C@H](C(=O)O)c4cc(O)cc(O)c4-c4cc3ccc4O)[C@H](O)c3ccc(c(Cl)c3)Oc3cc2cc(c3O[C@@H]2O[C@H](CO)[C@@H](O)[C@H](O)[C@H]2O[C@H]2C[C@](C)(N)[C@H](O)[C@H](C)O2)Oc2ccc(cc2Cl)[C@H]1O [Vancomycin]
[1]; [15]
  fitness: 0.757
[1]; [16]
  fitness: 0.751
[1]; [17]
  fitness: 0.757
[1]; [18]
  fitness: 0.596
[1]; [19]
  fitness: 0.638
[1]; [20]
  fitness: 0.624
[1]; [21]
  fitness: 0.525
[1]; [22]
  fitness: 0.546
[1]; [23]
  fitness: 0.542
[2]; [15]
  fitness: 0.649
[2]; [16]
  fitness: 0.628
[2]; [17]
  fitness: 0.655
[2]; [18]
  fitness: 0.555
[2]; [19]
  fitness: 0.563
[2]; [20]
  fitness: 0.548
[2]; [21]
  fitness: 0.279
[2]; [22]
  fitness: 0.255
[2]; [23]
  fitness: 0.245
[3]; [24]
  fitness: 0.97
[3]; [10]
  fitness: 0.916
[3]; [11]
  fitness: 0.905
[3]; [25]
  fitness: 0.0887
[3]; [26]
  fitness: 0.87
[3]; [13]
  fitness: 0.869
[3]; [14]
  fitness: 0.888
[3]; [27]
  fitness: 0.0855
[3]; [28]
  fitness: 0.719
[3]; [29]
  fitness: 0.726
[3]; [30]
  fitness: 0.255
[3]; [31]
  fitness: 0.0851
[4]
  Bliss interaction score: 0.029
[5]
  Bliss interaction score: 0.0454
[6]
  Bliss interaction score: 0.103
[7]
  Bliss interaction score: -0.0646

## C[C@@H]1O[C@@H]1P(=O)(O)O [Fosfomycin] + Cn1nnc(-c2ccc(-c3ccc(N4C[C@H](CO)OC4=O)cc3F)cn2)n1 [Tedizolid]
[1]; [32]
  fitness: 0.693
[1]; first compound 0.781 µg/mL, partner 0.125 µg/mL
  fitness: 0.497
[1]; first compound 0.781 µg/mL, partner 0.25 µg/mL
  fitness: 0.091
[1]; first compound 1.562 µg/mL, partner 0.0625 µg/mL
  fitness: 0.66
[1]; first compound 1.562 µg/mL, partner 0.125 µg/mL
  fitness: 0.372
[1]; [33]
  fitness: 0.0334
[1]; [34]
  fitness: 0.493
[1]; [35]
  fitness: 0.202
[1]; [36]
  fitness: 0.0354
[2]; [32]
  fitness: 0.52
[2]; [33]
  fitness: 0.101
[2]; [34]
  fitness: 0.106
[2]; [35]
  fitness: 0.0423
[2]; [36]
  fitness: 0.0102
[3]; [24]
  fitness: 0.951
[3]; [10]
  fitness: 0.95
[3]; [11]
  fitness: 0.813
[3]; [12]
  fitness: 0.43
[3]; [25]
  fitness: 0.138
[3]; [26]
  fitness: 0.936
[3]; [13]
  fitness: 0.906
[3]; [14]
  fitness: 0.792
[3]; first compound 2.5 µg/mL, partner 0.25 µg/mL
  fitness: 0.455
[3]; [27]
  fitness: 0.132
[3]; [28]
  fitness: 0.89
[3]; [29]
  fitness: 0.911
[3]; first compound 5 µg/mL, partner 0.125 µg/mL
  fitness: 0.783
[3]; [30]
  fitness: 0.437
[3]; [31]
  fitness: 0.151
[4]
  Bliss interaction score: 0.0967
[5]
  Bliss interaction score: 0.069
[6]
  Bliss interaction score: -0.128
[7]
  Bliss interaction score: 0.0919
